Data on three substances can be found in patent publication US9914750B2, “Synthetic peptides and peptide mimetics” (University of Louisville Research Foundation, priority 2007, dated 2018).

Entries after “also recorded” stand apart in the source; their conditions may differ. Where two headings read alike, the source gives them in different places. No end group written: not given here.

One series deals with P. aeruginosa PAO1. Put plainly: Biofilm formation / bacterial adhesion assay, PVC microtiter plates, crystal violet. The class given is cell-based, Pseudomonas aeruginosa. The note with it: 50 μg/ml, 6 h. Here is the method:
FIGS. 7A and 7B: PSP-peptides inhibit biofilm formation. P. aeruginosa PAO1 (overnight cultures, diluted 1:100 were incubated with 50 μg/ml of each peptide (LL37, GK7, GL13, KL11) or lysozyme for 6 h under aerobic (FIG. 7A) or reduced oxygen (anaerobic) (FIG. 7B) conditions. The OD 570 (growth) was determined and the attached cells were then quantitated by staining with crystal violet (biofilm). Growth and biofilm values were normalized against the mean of samples without peptides (HOAc) and expressed as mean±SEM. The data in panel A are from three independent experiments, N=22−24. The data in panel B are from two independent experiments, N=16. Lysozyme (Lyz) data are from a single experiment, N=8. *) different from Growth, P<0.002
(§1) Overnight cultures of P. aeruginosa PAO1 were diluted 1:100 in MHB and 100 μl/well were incubated with 5 μl of LL-37, GK-7, GL-13, KL-11 or lysozyme (1 mg/ml) in PVC microtiter plates. The plates were incubated for 6 h at 32° C. under aerobic or reduced oxygen conditions. Bacterial growth was quantitated spectrophotometrically at 570 nm. Twenty-five μl of 1% crystal violet in dH2O was added to each well and incubated 20 min at room temperature. The wells were emptied and washed three times in dH2O and then incubated for 30 min with 200 μl of 95% ethanol. The OD at 570 nm was determined as a measure of biofilm formation. Growth and biofilm values were normalized against the mean of samples incubated with 0.01% acetic acid without peptides.
as §1, with “μl of the bacterial suspension was mixed” for “μl/well were incubated”, “50 μg/ml” for “5 μl”, “lysozyme” for “lysozyme (1 mg/ml)”

Series [1] relates to P. aeruginosa with RAW 264.7 macrophage cells. The series is described as follows: Gentamicin protection assay (phagocytosis / clearance by macrophages). The class given is cell-based, mouse. The note with it: 100 μg/ml peptide. The procedure:
FIG. 13. Phagocytosis of P. aeruginosa: Bacteria (5×10^8 CFU/ml) were incubated with buffer (Blk), GK-7 or GL-13 (100 μg/ml) for 1 h and added to RAW cells for 2 h. The RAW cells were washed and incubated with […] for 90 min. The cells were lysed in 1% Tween-20 and the diluted contents plated on agar. CFU were enumerated and expressed relative to the mean of the blank in each of three experiments (N=9) *) P=0.025.
Overnight cultures of P. aeruginosa were diluted 1:5 in PBS and incubated for 1 h at room temperature with PSP peptides (100 μg/ml) or with an equivalent amount of 0.01% acetic acid. Aliquots (500 μl) of these samples were added to RAW 264.7 macrophage cells cultured in 24-well plates and incubated for 2 h at 37° C., 5% CO2. The cells were washed in DMEM and then incubated with DMEM containing 200 μg/ml Gentamicin for 90 min at 37° C., 5% CO2. The cells were again washed with DMEM and the incubated with 200 μl/well of PBS containing 1% Tween 20 for 5 min at room temperature. The cell extracts were diluted in LB and plated on LB agar plates. CFU were enumerated after overnight incubation at 37° C.

The test system of a further series is P. aeruginosa. Put plainly: Antibacterial activity in vivo, Romaine lettuce infection model. Set-up: species or system Pseudomonas aeruginosa. Conditions: 200 μg/ml peptide injected with bacteria, scored after 2-3 days. The procedure:
FIG. 4: Antibacterial activity in vivo. Romaine lettuce leaves were injected with P. aeruginosa (10^8 cells/nil) in the presence or absence of 200 μg/ml of antibacterial peptides. After 2-3 days incubation the injection sites were scored for infection on a scale of 0-100% relative to the no-bacteria (0% infection) and bacteria-only controls (PAO1) (100%). Data are from six independent experiments and are shown as mean±SEM, N=4−12. *) P<0.04, **) P<0.003.
Romaine lettuce heads were purchased from local grocery stores. Outer leaves were removed and undamaged leaves were selected. The leaves were rinsed in 0.1% bleach and incubated in plastic containers on filter paper moistened with 10 mM MgSO4. Overnight cultures of P. aeruginosa were diluted to 10^8 CFU/ml in 10 mM MgSO4 and supplemented with 200 μg/ml of each peptide. Ten μl (10^6 CFU, 2 μg peptide) were injected into the midrib of each leaf using a micro pipetter. Blank controls were incubated with buffer only, and bacterial controls were incubated without peptide. The plastic trays were covered and incubated at 35° C. Leaves were inspected daily for browning around the injection site or along the midrib. Generally rotting or moldy leaves were discarded. Infection was scored on a scale from 0% to 100% relative to blank controls and bacterial controls, respectively.

The next series deals with RAW 264.7 cells. The series is described as follows: Assay for inflammation: TNFα secretion with peptides alone (ELISA). The class given is cell-based, mouse. The procedure: (§2) FIGS. 15A and 15B. FIG. 15A. Inhibition of endotoxin-stimulated TNFα secretion. RAW 264.7 macrophage cells were stimulated with 100 ng/ml LPS in the presence or absence of the PSP-derived peptides GK7, KL11 or GL13 (200 μg/ml). Polymyxin B (PMX) was used as a positive control. Further controls consisted of peptides alone without LPS stimulation. TNFα secretion was analyzed by ELISA of the RAW culture medium. The data are from triplicate RAW culture dishes for each condition. *) different from LPS alone P<0.03, **) P<0.0002. FIG. 15B. Dose response curve for the inhibition of LPS-induced TNFα secretion by GL-13.
To determine if the PSP peptides cause an inflammatory response in RAW 264.7 cells, the cells were incubated with each peptide for 24 h and TNFα secretion was quantitated by ELISA.
The vaccine adjuvant monophosphoryl lipid A (MPLA) a low-toxicity derivative of LPS was used to stimulate RAW cells in the presence or absence of PSP peptides (200 μg/ml) or the anti-inflammatory peptide polymyxin B (PMX). Control samples were incubated with the peptides alone.

The next series relates to sheep red blood cells. Put plainly: Hemagglutination assay. Conditions: PBS, absence of serum, 2 h. The class given is cell-based. Here is the method: FIG. 22: Hemagglutination of sheep red blood cells. RBCs were washed in PBS and incubated for 2 h in microtiter plates in PBS±5% fetal calf serum. Peptide concentrations were 83 μg/ml. The microtiter plate was imaged. Agglutinated red blood cells form a wide mat of cells, while non-agglutinated cells form a button shaped pellet.
Briefly, unmodified sheep erythrocytes (Cappel, M P Biomedicals, Irvine, Calif.) were washed in PBS and suspended at 1% in PBS. Diluted erythrocytes and 20 μg/ml of each peptide in PBS were mixed in polypropylene microtiter plates (120 μl per well) and incubated for 2 h at 35° C. The plates were imaged on a Kodak Image station.

The test system of series [2] is Aggregatibacter (Actinobacillus) actinomycetemcomitans JP2. It is filed as cell-based. Conditions: 4 h, reduced oxygen. Here is the method: The PSP peptides GL13, GK7 and KL11, lysozyme, LL37 or no peptide (BLK) were incubated with P. aeruginosa (FIG. 3A) or A. actinomycetemcomitans (FIG. 3B). P. aeruginosa PAO1 (10^5 cells/ml) were incubated for 2 h at 35° C. with 10 μg/ml (open bars) or 100 μg/ml (shaded bars) of each peptide. A. actinomycetemcomitans JP2 (10^5 cells/nil) were incubated for 4 h at 37° C. under reduced oxygen conditions. Bacterial cultures were diluted and plated on LB agar (Pseudomonas) or BHI agar plates (A.a., low oxygen incubation) and surviving CFUs enumerated. The data are shown as mean±SEM, P. aeruginosa: N=8−22 at 100 μg/ml, N=2−10 at 10 μg/ml. A. actinomycetemcomitans: N=3. *) P<0.0001, **) P<0.004, ***) P<0.02
Overnight cultures of bacteria were pelleted and resuspended in 10 mM sodium phosphate, pH 7.4 (10^5 CFU/ml). Diluted bacteria (100 μl) were incubated with 10 or 100 μg/ml of each peptide in 10 mM sodium phosphate, pH 7.4. P aeruginosa PAO1 were incubated for 2 h at 35° C. while A. actinomycetemcomitans JP2 were incubated for 4 h at 37° C. under reduced oxygen conditions. […]
As a second antibacterial assay, bactericidal activity was determined by incubating the peptides (10 or 100 μg/ml) with P. aeruginosa, A. actinomycetemcomitans or S. gordonii in 10 mM phosphate buffer. […]

In series [3] the test system is P. aeruginosa PAO1 on MDCK cell monolayers. The series is described as follows: Epithelial invasion assay, MDCK monolayer penetration. It is filed as cell-based, Pseudomonas aeruginosa. Conditions: 24 h. The procedure: FIG. 10. MDCK monolayer penetration: MDCK cells were cultured on filter supports and infected on the apical side with 10^6 CFU/ml of P. aeruginosa PAO1 (PAO1) or bacteria mixed with PSP peptides, as indicated. Control MDCK cells were incubated with buffer alone (HOAc). After 24 h incubation at 37° C., the OD 600 nm was determined for the media in the basolateral compartment to detect bacterial penetration of the MDCK cell monolayer.
To determine if PSP peptides prevent the penetration of epithelial cell monolayers, the epithelial cell line MDCK was cultured on permeable membrane filters. P. aeruginosa were added to the apical medium of confluent MDCK cell monolayers and bacterial penetration was determined as the number of bacteria recovered from the basolateral medium after a 24 h incubation.

The subject of series [4] is LPS-binding protein (LBP). Put plainly: Inhibition of LPS binding to LPS-binding protein (ELISA). The procedure:
Analysis of the PSP sequence indicated three possible regions of biological activity. Initially, three peptides corresponding to the PSP sequence in these regions were designed and used in these studies. The initial step in the inflammatory cascade is the binding of LPS to LPS-binding protein. This binding was inhibited by preincubation of LPS with each of the three peptides. […] The binding of LPS to LPB was analyzed to ELISA. 0% inhibition (100% binding) was determined in the absence of inhibitors while 100% inhibition was determined in the presence of the inhibitor polymyxin B. The inhibition of each peptide is determined relative to the effect of polymyxin B.
On the technique in general: An ELISA detects its analyte on a solid surface through an enzyme-linked reagent.

In series [5] the test system is RAW 264.7 macrophage cells. Put plainly: LPS-induced TNFα secretion (ELISA). The class given is cell-based, mouse. Conditions: P. aeruginosa LPS. Here is the method:
as §2
In the present experiments, the redesigned PSP peptides (GL13, KL11) were tested for their effect on TNFα secretion and compared to GK7.

Consider GQIINLK [GK7, GQIINLK], for which, in the series with P. aeruginosa PAO1 (aerobic), the “bacterial growth in biofilm/adhesion assay” value is reported as “affected neither growth nor adhesion” and the “biofilm formation / adhesion” value is “affected neither growth nor adhesion”. In addition, in series [1], the “bacterial clearance / phagocytosis” value is “had no effect on clearance”. The “infection of lettuce leaves” value in the series with P. aeruginosa is on record as “neither GK-7 nor LL37 showed a significant effect on infection”. In the series on RAW 264.7 cells, the “TNFα secretion with peptide alone” value is “small increase in TNFα secretion”. For the same substance, in the series with sheep red blood cells, the “hemagglutination (words)” value is recorded as “did not cause hemagglutination”.
Consider KLLNNVISKLL [KL11, KLLNNVISKLL], for which, in the series with P. aeruginosa PAO1 (aerobic), the “bacterial growth in biofilm/adhesion assay” value was “only a small (non-significant) reduction of bacterial growth” and the “inhibition of biofilm formation (adhesion)” value amounted to 40%. The “biofilm formation” value in the series with P. aeruginosa PAO1 (reduced oxygen conditions) is “reduced biofilm formation under low oxygen conditions”. Also, the “survival of A. actinomycetemcomitans” value in series [2] stood at 40%. For the same substance, the “penetration / invasion of MDCK cell monolayers by P. aeruginosa” value in series [3] is given as “could inhibit the penetration”. Also, in the series with P. aeruginosa, the “infection of lettuce leaves” value is “significantly reduced the infection; also recorded: significantly inhibit P. aeruginosa infection”. Moreover, the “hemagglutination (words)” value in the series on sheep red blood cells was “did not cause hemagglutination”.
Turning to polymyxin B [reference compound], in series [4], the “effect on LPS binding to LBP” value is on record as “Strong inhibition”. In addition, the “inhibition of LPS-induced TNFα secretion” value in series [5] is “about 50%”. Besides, in the series with RAW 264.7 cells (no LPS stimulation), the “TNFα secretion with peptide alone” value is on record as “exhibited toxicity to RAW cells, as evidenced by increased TNFα release”. Moreover, the “hemagglutination (words)” value in the series with sheep red blood cells is reported as “did not cause hemagglutination”.
